According to US20160297830A1, “NOVEL COMPOUNDS USEFUL FOR THE TREATMENT OF BACTERIAL INFECTIOUS DISEASES” (GALAPAGOS NV, priority 2013, published 2016):
Converted amounts (≈) assume the structure as drawn. Read-outs that look alike come from different tables or passages of the source.

How the values were obtained:
S. aureus Sa1 ATCC 13709 = assay: microbe, parasite or virus in culture; assay type: cell-based; details: Staphylococcus aureus
[1] = tested on: S. aureus Sa26 ATCC 25923; assay: Antibacterial activity assay (MIC), S. aureus Sa26; assay type: cell-based; details: Staphylococcus aureus
S. aureus Sa4 NCTC 6571 = assay: Antibacterial activity assay (MIC), S. aureus Sa4; assay type: cell-based; details: Staphylococcus aureus
[2] = tested on: S. aureus Sa2 clinical strain NCIMB 41953, MRSA; assay: microbe, parasite or virus in culture; assay type: cell-based; details: Staphylococcus aureus, read-out: MIC Sa2
[3] = tested on: H. influenza Hi3 ATCC 31517; assay: organism not typed; assay type: cell-based; details: read-out: MIC Hi3
[4] = tested on: H. influenza Hi10 clinical strain; assay: organism not typed; assay type: cell-based; details: read-out: MIC Hi10
[5] = tested on: H. influenza Hi47 clinical strain, Ampicillin Resistant; assay: organism not typed; assay type: cell-based; details: read-out: MIC Hi47
[6] = tested on: H. influenza Hi106 ATCC 51907; assay: organism not typed; assay type: cell-based; details: read-out: MIC Hi106
E. coli Ec1 ATCC 25922 = assay: Antibacterial activity assay (MIC), E. coli Ec1; assay type: cell-based; details: Escherichia coli
[7] = tested on: E. coli Ec50 efflux pump KO; assay: microbe, parasite or virus in culture; assay type: cell-based; details: Escherichia coli, read-out: MIC Ec50 efflux pump KO
[8] = tested on: E. coli Ec113 efflux pump KO; assay: microbe, parasite or virus in culture; assay type: cell-based; details: Escherichia coli, read-out: MIC Ec113 efflux pump KO
[9] = molecular target: DNA Polymerase IIIα (DnaE) from Staphylococcus aureus (Staphylococcus aureus, UniProt Q6GG04); assay: biochemical
DNA III Polymerase E = DNA III Polymerase E (Escherichia coli, UniProt P10443); assay: In vitro activity against DNA III Polymerase E, E. coli; assay type: biochemical
Experimental: A radioactive filterplate assay was used to assess inhibitory activity of compounds on DNA Polymerase IIIα. Five μL of a dilution series of compound, starting from 100 μM highest concentration, 1/5 dilution, was added to the wells of a 96 well plate. Recombinant enzyme was diluted to 0.47 μg/mL in a buffer containing 20 mM Tris pH7.5, 8 mM DTT, 10 mM MgOAc, 0.05% CHAPS and 10 μL thereof was added to the compound dilutions. The reaction was started with the addition of 10 μL substrate in the same buffer, containing activated calf thymus DNA (Sigma, D4522), dATP, dGTP, dCTP, dTTP (Invitrogen) and [α-33P]-dTTP (Perkin Elmer, NEG605H001) at a concentration of 62.5 μg/mL, 50 nM and 7.5 μCi/mL respectively. The mixture was incubated at 30° C. for 120 minutes and terminated by addition of phosphoric acid. Samples were transferred to filter plates and incorporated radioactivity was measured by the Topcount. Data were converted to percent inhibition with respect to positive and negative controls. IC50 values were calculated using Graph Prism™ software.

[10] = ATCC25923, read-out: MIC Sa26 + 10% SH
[11] = ATCC25923, read-out: MIC Sa26 + 50% SH
[12] = DNA polymerase III, E. coli, read-out: IC50 semiquantitative scoring, E. coli
[13] = ATCC13709, S. aureus Sa1 ATCC 13709, sensitive strain, Mueller-Hinton Broth, 37° C., read-out: MIC Sa1
[14] = ATCC25923, read-out: MIC Sa26 + 10% SH, S. aureus Sa26 + 10% SH
[15] = ATCC25923, read-out: MIC Sa26 + 50% SH, S. aureus Sa26 + 50% SH
[16] = ATCC25923, S. aureus Sa26 ATCC 25923, sensitive strain, Mueller-Hinton Broth, 37° C., read-out: MIC Sa26
[17] = NCTC6571, S. aureus Sa4 NCTC 6571, sensitive strain, read-out: MIC Sa4
[18] = ATCC25922, E. coli Ec1 ATCC 25922, sensitive strain, read-out: MIC Ec1
[19] = DNA polymerase III, S. aureus, read-out: IC50 semiquantitative scoring, S. aureus

Chain of DNA III Polymerase E (P10443 whole entry): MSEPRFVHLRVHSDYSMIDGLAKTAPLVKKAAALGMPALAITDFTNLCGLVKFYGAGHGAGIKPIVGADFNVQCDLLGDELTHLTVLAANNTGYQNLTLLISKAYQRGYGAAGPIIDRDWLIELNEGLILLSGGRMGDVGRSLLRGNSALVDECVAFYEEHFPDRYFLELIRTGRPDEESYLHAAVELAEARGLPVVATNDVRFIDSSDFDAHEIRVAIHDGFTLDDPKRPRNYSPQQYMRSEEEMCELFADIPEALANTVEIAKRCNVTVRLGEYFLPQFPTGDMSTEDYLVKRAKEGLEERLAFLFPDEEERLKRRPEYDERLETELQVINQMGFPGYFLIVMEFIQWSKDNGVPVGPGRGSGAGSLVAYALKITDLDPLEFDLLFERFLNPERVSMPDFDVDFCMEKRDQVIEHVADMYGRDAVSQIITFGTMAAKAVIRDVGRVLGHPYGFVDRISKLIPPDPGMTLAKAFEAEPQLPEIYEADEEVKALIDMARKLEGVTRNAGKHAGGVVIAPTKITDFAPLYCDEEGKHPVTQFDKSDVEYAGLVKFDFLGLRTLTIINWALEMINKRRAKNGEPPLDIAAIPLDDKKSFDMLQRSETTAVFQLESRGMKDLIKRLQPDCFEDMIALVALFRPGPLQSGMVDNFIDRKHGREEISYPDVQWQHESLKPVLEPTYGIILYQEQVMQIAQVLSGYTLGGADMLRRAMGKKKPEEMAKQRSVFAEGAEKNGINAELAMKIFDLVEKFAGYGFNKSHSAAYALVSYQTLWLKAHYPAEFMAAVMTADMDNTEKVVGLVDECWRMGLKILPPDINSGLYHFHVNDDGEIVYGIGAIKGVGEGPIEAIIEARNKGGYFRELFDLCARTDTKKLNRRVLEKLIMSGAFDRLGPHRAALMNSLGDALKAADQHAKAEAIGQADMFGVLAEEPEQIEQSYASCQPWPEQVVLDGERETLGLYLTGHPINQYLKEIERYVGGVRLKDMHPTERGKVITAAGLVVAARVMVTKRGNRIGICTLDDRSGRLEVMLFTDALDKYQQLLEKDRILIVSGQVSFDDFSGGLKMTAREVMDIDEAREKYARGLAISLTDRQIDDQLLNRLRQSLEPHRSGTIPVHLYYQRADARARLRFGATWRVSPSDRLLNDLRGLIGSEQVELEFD
Chain of DNA Polymerase IIIα (DnaE) from Staphylococcus aureus (Q6GG04 1-1022): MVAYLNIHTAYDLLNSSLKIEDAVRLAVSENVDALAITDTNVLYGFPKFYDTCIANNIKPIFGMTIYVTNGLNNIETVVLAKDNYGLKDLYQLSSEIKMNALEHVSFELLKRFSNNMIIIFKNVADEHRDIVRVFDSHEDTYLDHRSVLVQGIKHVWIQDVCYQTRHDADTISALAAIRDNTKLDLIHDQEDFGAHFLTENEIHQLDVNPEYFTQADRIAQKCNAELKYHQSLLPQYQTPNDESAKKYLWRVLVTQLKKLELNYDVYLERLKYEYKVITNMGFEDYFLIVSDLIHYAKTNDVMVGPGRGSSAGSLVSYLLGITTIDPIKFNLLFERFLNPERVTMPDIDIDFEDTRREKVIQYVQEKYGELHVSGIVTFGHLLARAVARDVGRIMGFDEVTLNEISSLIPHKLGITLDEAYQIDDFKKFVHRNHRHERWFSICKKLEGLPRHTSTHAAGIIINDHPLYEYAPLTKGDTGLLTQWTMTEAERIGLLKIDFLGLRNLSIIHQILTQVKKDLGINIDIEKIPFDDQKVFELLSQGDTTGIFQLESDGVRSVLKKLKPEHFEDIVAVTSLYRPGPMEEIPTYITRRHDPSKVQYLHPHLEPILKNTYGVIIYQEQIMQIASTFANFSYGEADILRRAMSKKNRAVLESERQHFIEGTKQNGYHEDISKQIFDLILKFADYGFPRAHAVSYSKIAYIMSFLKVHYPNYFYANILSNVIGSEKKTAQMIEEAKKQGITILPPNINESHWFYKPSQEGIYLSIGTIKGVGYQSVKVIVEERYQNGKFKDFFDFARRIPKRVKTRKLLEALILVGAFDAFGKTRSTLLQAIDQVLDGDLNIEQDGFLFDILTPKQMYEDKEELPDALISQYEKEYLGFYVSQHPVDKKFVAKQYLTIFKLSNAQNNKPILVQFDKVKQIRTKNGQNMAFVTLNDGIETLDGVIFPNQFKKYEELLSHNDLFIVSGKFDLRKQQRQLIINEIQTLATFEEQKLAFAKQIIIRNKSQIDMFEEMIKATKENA

| Compound | MIC (S. aureus Sa1 ATCC 13709; ATCC13709, read-out: MIC Sa1) [µg/mL] | MIC ([1]; ATCC25923, read-out: MIC Sa26) [µg/mL] | MIC [1, 10] [µg/mL] | MIC [1, 11] [µg/mL] | MIC (S. aureus Sa4 NCTC 6571; NCTC6571, read-out: MIC Sa4) [µg/mL] | MIC [2] [µg/mL] | MIC [3] [µg/mL] | MIC [4] [µg/mL] | MIC [5] [µg/mL] | MIC [6] [µg/mL] | MIC [7] [µg/mL] | MIC [8] [µg/mL] | IC50 [9] [µM] | IC50 (DNA III Polymerase E; [12]) [µM] | MIC (S. aureus Sa1 ATCC 13709; [13]) [µg/mL] | MIC [1, 14] [µg/mL] | MIC [1, 15] [µg/mL] | MIC [1, 16] [µg/mL] | MIC (S. aureus Sa4 NCTC 6571; [17]) [µg/mL] | MIC (E. coli Ec1 ATCC 25922; [18]) [µg/mL] | also measured |
| --- | --- | --- | --- | --- | --- | --- | --- | --- | --- | --- | --- | --- | --- | --- | --- | --- | --- | --- | --- | --- | --- |
| COC[C@@H]1[C@@H](O)[C@@H]2[C@H]3C=C[C@@H]4[C@@H](COC)C(=O)O[C@H]([C@@H](COC)OC)[C@H](C)/C=C(\C)[C@@]24O[C@H]3[C@@H]1OC(=O)c1ccc[nH]1 [Compound 18, 17-O-Methyl-8-O-1H-pyrrole-2′-carbonylbranimycin] | 1 (≈ 1.7 µM) | 1 (≈ 1.7 µM) | 1 | 2 | 1 (≈ 1.7 µM) | 1 (≈ 1.7 µM) | > 64 | > 64 | > 64 | > 64 | > 64 | 2 (≈ 3.39 µM) | 0.0017 to 1.7 | 1.7 to 17 | – | – | – | – | – | – | MIC (E. coli Ec1 ATCC 25922; ATCC25922, read-out: MIC Ec1): > 64 µg/mL |
| COC[C@@H]1[C@@H](O)[C@@H]2[C@H]3C=C[C@@H]4[C@@H](COC)C(=O)O[C@H]([C@H](O)COC)[C@H](C)/C=C(\C)[C@@]24O[C@H]3[C@@H]1OC(=O)c1ccon1 [Compound 13, 8-O-Isoxazole-3′-carbonylbranimycin] | – | – | – | – | – | > 64 | > 64 | > 64 | 64 (≈ 111 µM) | > 64 | 64 (≈ 111 µM) | 8 (≈ 13.8 µM) | – | > 17.3 | > 64 | > 64 | > 64 | > 64 | 64 (≈ 111 µM) | > 64 | IC50 [9, 19]: 1.73 to 17.3 µM |
| COC[C@@H]1[C@@H](O)[C@@H]2[C@H]3CC[C@@H]4[C@@H](COC)C(=O)O[C@H]([C@H](O)COC)[C@H](C)/C=C(\C)[C@@]24O[C@H]3[C@@H]1OC(=O)c1ccc[nH]1 [Compound 16, 4,5-Dihydro-8-O-1H-pyrrole-2′-carbonylbranimycin] | 8 (≈ 13.8 µM) | 8 (≈ 13.8 µM) | 8 | 8 | 4 (≈ 6.92 µM) | 4 (≈ 6.92 µM) | > 64 | > 64 | > 64 | > 64 | > 64 | 4 (≈ 6.92 µM) | 0.00173 to 1.73 | > 17.3 | – | – | – | – | – | – | MIC (E. coli Ec1 ATCC 25922; ATCC25922, read-out: MIC Ec1): > 64 µg/mL |
| COCC(=NO)[C@H]1OC(=O)[C@H](COC)[C@H]2C=C[C@H]3[C@H]4O[C@]2(/C(C)=C/[C@H]1C)[C@@H]3[C@H](O)[C@@H](COC)[C@H]4OC(=O)c1cc(F)c[nH]1 [Compound 40, 18-Deoxy-18-oximino-8-O-4-Fluoro-1H-pyrrole-2′-carbonylbranimycin] | – | – | – | – | – | 0.25 (≈ 0.412 µM) | > 64 | 64 (≈ 105 µM) | > 64 | > 64 | 16 (≈ 26.4 µM) | 0.25 (≈ 0.412 µM) | 0.00165 to 1.65 | 0.00165 to 1.65 | 0.25 (≈ 0.412 µM) | 1 | 1 | 1 (≈ 1.65 µM) | 0.12 (≈ 0.198 µM) | > 64 | – |
| COC[C@@H]1[C@@H](O)[C@@H]2[C@H]3C=C[C@@H]4[C@@H](COC)C(=O)O[C@H]([C@H](O)COC)[C@H](C)/C=C(\C)[C@@]24O[C@H]3[C@@H]1OC(=O)c1cc(C#N)c[nH]1 [Compound 26, 8-O-4-Cyano-1H-pyrrole-2′-carbonylbranimycin] | 64 (≈ 107 µM) | 128 (≈ 213 µM) | 128 | 64 | 64 (≈ 107 µM) | 64 (≈ 107 µM) | > 128 | > 128 | > 128 | > 128 | 2 (≈ 3.33 µM) | 4 (≈ 6.66 µM) | 0.00166 to 1.66 | 1.66 to 16.6 | – | – | – | – | – | – | MIC (E. coli Ec1 ATCC 25922; ATCC25922, read-out: MIC Ec1): > 128 µg/mL |
| COC[C@@H](O)[C@H]1OC(=O)[C@H](COC)[C@H]2C=C[C@H]3[C@H]4O[C@]2(/C(C)=C/[C@H]1C)[C@@H]3[C@H](O)[C@@H](C)[C@H]4OC(=O)c1ccc[nH]1 [Compound 3, 8-O-1H-pyrrole-2′-carbonylbaleomycin] | – | – | – | – | – | 0.5 (≈ 0.916 µM) | > 64 | 64 (≈ 117 µM) | > 64 | 64 (≈ 117 µM) | 8 (≈ 14.7 µM) | 0.125 (≈ 0.229 µM) | 0.00183 to 1.83 | 1.83 to 18.3 | 0.5 (≈ 0.916 µM) | 1 | 2 | 1 (≈ 1.83 µM) | 0.5 (≈ 0.916 µM) | > 64 | – |
| COC[C@@H]1[C@@H](O)[C@@H]2[C@H]3C=C[C@@H]4[C@@H](COC)C(=O)O[C@H]([C@H](O)COC)[C@H](C)/C=C(\C)[C@@]24O[C@H]3[C@@H]1OC(=O)c1cocn1 [Compound 8, 8-O-Oxazole-4′-carbonylbranimycin] | – | – | – | – | – | > 64 | > 64 | > 64 | > 64 | > 64 | > 64 | 64 (≈ 111 µM) | – | > 17.3 | > 64 | > 64 | > 64 | > 64 | > 64 | > 64 | IC50 [9, 19]: 1.73 to 17.3 µM |
| COC[C@@H]1[C@@H](O)[C@@H]2[C@H]3C=C[C@@H]4[C@@H](COC)C(=O)O[C@H]([C@H](O)COC)[C@H](C)/C=C(\C)[C@@]24O[C@H]3[C@@H]1OC(=O)c1ccsc1 [Compound 9, 8-O-Thiophene-3′-carbonylbranimycin] | – | – | – | – | – | 4 (≈ 6.75 µM) | > 64 | > 64 | > 64 | > 64 | > 64 | 4 (≈ 6.75 µM) | – | > 16.9 | 4 (≈ 6.75 µM) | 2 | 4 | 2 (≈ 3.37 µM) | 2 (≈ 3.37 µM) | > 64 | IC50 [9, 19]: 0.00169 to 1.69 µM |
| COC[C@@H]1[C@@H](O)[C@@H]2[C@H]3C=C[C@@H]4[C@@H](COC)C(=O)O[C@H]([C@H](O)COC)[C@H](C)/C=C(\C)[C@@]24O[C@H]3[C@@H]1OC(=O)c1cc[nH]n1 [Compound 10, 8-O-1H-Pyrazole-3′-carbonylbranimycin] | – | – | – | – | – | 16 (≈ 27.7 µM) | > 64 | > 64 | > 64 | > 64 | > 64 | 16 (≈ 27.7 µM) | 0.00173 to 1.73 | – | 16 (≈ 27.7 µM) | 16 | 8 | 16 (≈ 27.7 µM) | 16 (≈ 27.7 µM) | > 64 | IC50 (DNA III Polymerase E): > 17.3 µM |
| COCC(=O)[C@H]1OC(=O)[C@H](COC)[C@H]2C=C[C@H]3[C@H]4O[C@]2(/C(C)=C/[C@H]1C)[C@@H]3[C@H](O)[C@@H](COC)[C@H]4OC(=O)c1ccc[nH]1 [Compound 20, 18-Deoxy-18-oxo-8-O-1H-pyrrole-2′-carbonylbranimycin] | 8 (≈ 13.9 µM) | 8 (≈ 13.9 µM) | 16 | 32 | 4 (≈ 6.97 µM) | 2 (≈ 3.49 µM) | > 64 | > 64 | > 64 | > 64 | > 64 | 16 (≈ 27.9 µM) | 0.00174 to 1.74 | > 17.4 | – | – | – | – | – | – | MIC (E. coli Ec1 ATCC 25922; ATCC25922, read-out: MIC Ec1): > 64 µg/mL |
| COC[C@@H]1[C@@H](O)[C@@H]2[C@H]3C=C[C@@H]4[C@@H](COC)C(=O)O[C@H](C(C)(O)COC)[C@H](C)/C=C(\C)[C@@]24O[C@H]3[C@@H]1OC(=O)c1ccc[nH]1 (stereo partly drawn) [Compound 24, 17-Methyl-8-O-1H-pyrrole-2′-carbonylbranimycin] | – | – | – | – | – | 2 (≈ 3.39 µM) | > 64 | > 64 | > 64 | > 64 | 1 (≈ 1.7 µM) | 2 (≈ 3.39 µM) | 0.0017 to 1.7 | – | 4 (≈ 6.78 µM) | 4 | 4 | 4 (≈ 6.78 µM) | 2 (≈ 3.39 µM) | > 64 | IC50 (DNA III Polymerase E): > 17 µM |
